Test results published in US7109193B2, “Tricyclic diazepines tocolytic oxytocin receptor antagonists” (Wyeth, priority 2001, dated 2006).

Target: T1, human oxytocin receptor (Homo sapiens, UniProt P30559)
T1 construct: host or cells: CHO cells (pcDNA3.1 vector)
T1 sequence (P30559 1-389): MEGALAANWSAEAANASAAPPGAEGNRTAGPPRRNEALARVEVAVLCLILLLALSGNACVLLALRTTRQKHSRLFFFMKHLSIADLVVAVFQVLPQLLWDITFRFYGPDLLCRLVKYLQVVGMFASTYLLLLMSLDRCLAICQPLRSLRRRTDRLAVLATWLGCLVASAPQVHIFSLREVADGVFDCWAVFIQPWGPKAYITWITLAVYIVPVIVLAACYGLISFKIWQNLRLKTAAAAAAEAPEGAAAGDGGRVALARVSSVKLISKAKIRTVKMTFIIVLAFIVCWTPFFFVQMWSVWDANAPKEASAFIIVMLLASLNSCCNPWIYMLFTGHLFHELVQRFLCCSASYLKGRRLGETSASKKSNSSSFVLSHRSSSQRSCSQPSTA
Assay: Oxytocin binding in Chinese Hamster Ovary cell membranes expressing human oxytocin receptors
Conditions: 100 nM, CHO cell membranes, [3H]oxytocin, values without parentheses, read-out: OT % inhibition @ 100% nM

SMILES	inhibition at 0.1 µM [%]
COc1ccccc1-c1ccc(C(=O)N2Cc3ccc(C(=O)N(C)C4CCN(C)C4)n3Cc3ccccc32)cc1C (stereo not shown) [Example 185, 10-[(2′-Methoxy-2-methyl[1,1′-biphenyl]-4-yl)carbonyl]-N-methyl-N-(1-methyl-3-pyrrolidinyl)-10,11-dihydro-5H-pyrrolo[2,1-c][1,4]benzodiazepine-3-carboxamide]	95
COc1cc(C(=O)N2Cc3ccc(C(=O)N(C)C4CCN(C)C4)n3Cc3ccccc32)ccc1-c1ccccc1C (stereo not shown) [Example 189, 10-[(2-Methoxy-2′-methyl[1,1′-biphenyl]-4-yl)carbonyl]-N-methyl-N-(1-methyl-3-pyrrolidinyl)-10,11-dihydro-5H-pyrrolo[2,1-c][1,4]benzodiazepine-3-carboxamide]	99
COc1cccc(-c2cc(OC)c(C(=O)N3Cc4ccc(C(=O)N5CCN(CCN(C)C)CC5)n4Cc4ccccc43)cc2Cl)c1 [Example 202, {10-[(6-Chloro-3,3′-dimethoxy[1,1′-biphenyl]-4-yl)carbonyl]-10,11-dihydro-5H-pyrrolo[2,1-c][1,4]benzodiazepin-3-yl}{4-[2-(dimethylamino)ethyl]-1-piperazinyl}methanone]	73
COc1cccc(-c2ccc(C(=O)N3Cc4ccc(C(=O)N(C)C5CCN(C)CC5)n4Cc4ccccc43)cc2C)c1 [Example 176, 10-[(3′-Methoxy-2-methyl[1,1′-biphenyl]-4-yl)carbonyl]-N-methyl-N-(1-methyl-4-piperidinyl)-10,11-dihydro-5H-pyrrolo[2,1-c][1,4]benzodiazepine-3-carboxamide]	88
COc1ccccc1-c1ccc(C(=O)N2Cc3ccc(C(=O)NCCN4CCCCC4)n3Cc3ccccc32)cc1OC [Example 158, 10-[(2,2′-Dimethoxy[1,1′-biphenyl]-4-yl)carbonyl]-N-[2-(1-piperidinyl)ethyl]-10,11-dihydro-5H-pyrrolo[2,1-c][1,4]benzodiazepine-3-carboxamide]	50
Cc1cc(C(=O)N2Cc3ccc(C(=O)N(C)C4CCN(C)C4)n3Cc3ccccc32)ccc1-c1ccccc1C(F)(F)F (stereo not shown) [Example 194, N-Methyl-N-(1-methyl-3-pyrrolidinyl)-10-{[2-methyl-2′-(trifluoromethyl)[1,1′-biphenyl]-4-yl]carbonyl}-10,11-dihydro-5H-pyrrolo[2,1-c][1,4]benzodiazepine-3-carboxamide]	96
COc1cc(C(=O)N2Cc3ccc(C(=O)NCCC4CCCN4C)n3Cc3ccccc32)ccc1-c1ccccc1C (stereo not shown) [Example 167, 10-[(2-Methoxy-2′-methyl[1,1′-biphenyl]-4-yl)carbonyl]-N-[2-(1-methyl-2-pyrrolidinyl)ethyl]-10,11-dihydro-5H-pyrrolo[2,1-c][1,4]benzodiazepine-3-carboxamide]	60
COc1ccccc1-c1ccc(C(=O)N2Cc3ccc(C(=O)O)n3Cc3ccccc32)cc1C [Example 9, 10-[(2′-Methoxy-2-methyl-[1,1′-biphenyl]-4-yl)carbonyl]-10,11-dihydro-5H-pyrrolo[2,1-c][1,4]benzodiazepine-3-carboxylic acid]	32
COc1ccccc1-c1ccc(C(=O)N2Cc3ccc(C(=O)N(C)C4CCN(C)CC4)n3Cc3ccccc32)cc1 [Example 177, 10-[(2′-Methoxy[1,1′-biphenyl]-4-yl)carbonyl]-N-methyl-N-(1-methyl-4-piperidinyl)-10,11-dihydro-5H-pyrrolo[2,1-c][1,4]benzodiazepine-3-carboxamide]	98
Cc1ccccc1-c1ccc(C(=O)N2Cc3ccc(C(=O)NCCC4CCCN4C)n3Cc3ccccc32)cc1 (stereo not shown) [Example 166, 10-[(2′-Methyl[1,1′-biphenyl]-4-yl)carbonyl]-N-[2-(1-methyl-2-pyrrolidinyl)ethyl]-10,11-dihydro-5H-pyrrolo[2,1-c][1,4]benzodiazepine-3-carboxamide]	27
COc1cccc(-c2cc(OC)c(C(=O)N3Cc4ccc(C(=O)NCCN5CCCCC5)n4Cc4ccccc43)cc2Cl)c1 [Example 156, 10-[(6-Chloro-3,3′-dimethoxy[1,1′-biphenyl]-4-yl)carbonyl]-N-[2-(1-piperidinyl)ethyl]-10,11-dihydro-5H-pyrrolo[2,1-c][1,4]benzodiazepine-3-carboxamide]	30
COc1cc(C(=O)N2Cc3ccc(C(=O)N(C)C4CCN(C)CC4)n3Cc3ccccc32)ccc1-c1cccc2ccccc12 [Example 182, 10-[3-Methoxy-4-(1-naphthyl)benzoyl]-N-methyl-N-(1-methyl-4-piperidinyl)-10,11-dihydro-5H-pyrrolo[2,1-c][1,4]benzodiazepine-3-carboxamide]	70
COc1ccccc1-c1ccc(C(=O)N2Cc3ccc(C(=O)N(C)C4CCN(C)CC4)n3Cc3ccccc32)cc1C [Example 175, 10-[(2′-Methoxy-2-methyl[1,1′-biphenyl]-4-yl)carbonyl]-N-methyl-N-(1-methyl-4-piperidinyl)-10,11-dihydro-5H-pyrrolo[2,1-c][1,4]benzodiazepine-3-carboxamide]	98
O=C(NCCN1CCCCC1)c1ccc2n1Cc1ccccc1N(C(=O)c1ccc(-c3cccc4ccccc34)cc1Cl)C2 [Example 160, 10-[2-Chloro-4-(1-naphthyl)benzoyl]-N-[2-(1-piperidinyl)ethyl]-10,11-dihydro-5H-pyrrolo[2,1-c][1,4]benzodiazepine-3-carboxamide]	20
COc1cc(-c2ccccc2C)c(Cl)cc1C(=O)N1Cc2ccc(C(=O)N(C)C3CCN(C)CC3)n2Cc2ccccc21 [Example 180, 10-[(6-Chloro-3-methoxy-2′-methyl[1,1′-biphenyl]-4-yl)carbonyl]-N-methyl-N-(1-methyl-4-piperidinyl)-10,11-dihydro-5H-pyrrolo[2,1-c][1,4]benzodiazepine-3-carboxamide]	98
COc1cc2c(cc1OC)N(C(=O)c1ccc(-c3ccccc3C(F)(F)F)c(C)c1)Cc1cccn1C2 [Example 12, 7,8-Dimethoxy-[10,11-dihydro-5H-pyrrolo[2,1-c][1,4]benzodiazepin-10-yl][2-methyl-2′-(trifluoromethyl)[1,1′-biphenyl]-4-yl]methanone]	21

Continued, values first:

inhibition at 0.1 µM [%]	SMILES
72	COc1ccccc1-c1ccc(C(=O)N2Cc3ccc(C(=O)N4CCN(CCN(C)C)CC4)n3Cc3ccccc32)cc1OC [Example 204, {10-[(2,2′-Dimethoxy[1,1′-biphenyl]-4-yl)carbonyl]-10,11-dihydro-5H-pyrrolo[2,1-c][1,4]benzodiazepin-3-yl}{4-[2-(dimethylamino)ethyl]-1-piperazinyl}methanone]
19	C=CCN1CCN(C(=O)c2ccc3n2Cc2ccccc2N(C(=O)c2ccc(-c4cccc5ccccc45)cc2Cl)C3)CC1 [Example 229, (4-Allyl-1-piperazinyl){10-[2-chloro-4-(1-naphthyl)benzoyl]-10,11-dihydro-5H-pyrrolo[2,1-c][1,4]benzodiazepin-3-yl}methanone]
81	COc1cccc(-c2ccc(C(=O)N3Cc4ccc(C(=O)N5CCN(CCN6CCOCC6)CC5)n4Cc4ccccc43)cc2C)c1 [Example 208, {10-[(3′-Methoxy-2-methyl[1,1′-biphenyl]-4-yl)carbonyl]-10,11-dihydro-5H-pyrrolo[2,1-c][1,4]benzodiazepin-3-yl}{4-[2-(4-morpholinyl)ethyl]-1-piperazinyl}methanone]
70	COc1cc(C(=O)N2Cc3ccc(C(=O)N4CCN(CCN5CCOCC5)CC4)n3Cc3ccccc32)ccc1-c1cccc2ccccc12 [Example 213, {10-[3-Methoxy-4-(1-naphthyl)benzoyl]-10,11-dihydro-5H-pyrrolo[2,1-c][1,4]benzodiazepin-3-yl}{4-[2-(4-morpholinyl)ethyl]-1-piperazinyl}methanone]
79	COc1cc(-c2ccccc2C)c(Cl)cc1C(=O)N1Cc2ccc(C(=O)N3CCN(C(C)C)CC3)n2Cc2ccccc21 [Example 238, {10-[(6-Chloro-3-methoxy-2′-methyl[1,1′-biphenyl]-4-yl)carbonyl]-10,11-dihydro-5H -pyrrolo[2,1-c][1,4]benzodiazepin-3-yl}(4-isopropyl-1-piperazinyl)methanone]
81	Cc1ccccc1-c1ccc(C(=O)N2Cc3ccc(C(=O)N4CCN(CCN5CCOCC5)CC4)n3Cc3ccccc32)cc1 [Example 209, {10-[(2′-Methyl[1,1′-biphenyl]-4-yl)carbonyl]-10,11-dihydro-5H-pyrrolo[2,1-c][1,4]benzodiazepin-3-yl}{4-[2-(4-morpholinyl)ethyl]-1-piperazinyl}methanone]
69	COc1cccc(-c2ccc(C(=O)N3Cc4ccc(C(=O)N5CCN(C(C)C)CC5)n4Cc4ccccc43)cc2OC)c1 [Example 242, {10-[(2,3′-Dimethoxy[1,1′-biphenyl]-4-yl)carbonyl]-10,11-dihydro-5H-pyrrolo[2,1-c][1,4]benzodiazepin-3-yl}(4-isopropyl-1-piperazinyl)methanone]
87	C=CCN1CCN(C(=O)c2ccc3n2Cc2ccccc2N(C(=O)c2ccc(-c4ccccc4C)c(OC)c2)C3)CC1 [Example 225, (4-Allyl-1-piperazinyl){10-[(2-methoxy-2′-methyl[1,1′-biphenyl]-4-yl)carbonyl]-10,11-dihydro-5H-pyrrolo[2,1-c][1,4]benzodiazepin-3-yl}methanone]
87	COc1cccc(-c2ccc(C(=O)N3Cc4ccc(C(=O)N5CCN(CCN6CCOCC6)CC5)n4Cc4ccccc43)cc2OC)c1 [Example 211, {10-[(2,3′-Dimethoxy[1,1′-biphenyl]-4-yl)carbonyl]-10,11-dihydro-5H-pyrrolo[2,1-c][1,4]benzodiazepin-3-yl}{4-[2-(4-morpholinyl)ethyl]-1-piperazinyl}methanone]
